From patent publication US4711895A, “4-hydroxy-2-cyclopentenone, process for production thereof, pharmaceutical composition comprising it” (Teijin Limited, priority 1984, dated 1987)
Values after ≈ are worked out from the molar mass of the structure shown. Where two headings read alike, the source gives them in different places.

Assays:
[1] = tested on: P388 mouse leukemia cells; test: Antitumor effect on P388 mouse leukemia tumor in ICR mice; format: in vivo; details: i.p., 5 days
Protocol: Measurement of the antitumor effect on P338 mouse leukemia tumor
1×10^5 P388 mouse leukemia cells were intraperitoneally administered to ICR mice. After the lapse of 24 hours, each of the test compounds shown in Table II was intraperitoneally administered to the mice for 5 days. The periods of survival of these animals were examined and the increase of their life span (ILS%) were determined.

[2] = tested on: L1210 leukemia cells; test: Action of inhibiting proliferation of L1210 leukemia cell; format: cell-based; details: RPMI medium, 10% FCS, 37° C., 4 days, trypan blue
Protocol: Measurement of the action of inhibiting Proliferation of L1210 leukemia cell
L1210 leukemia cells were added to an RPMI medium containing 10% FCS (fetal calf serum), and the concentration of the cells was adjusted to […]. Each of the test compounds shown in Table I was dissolved in 99.5% ethanol. Prior to use, the final concentration of the ethanol solution was adjusted to less than 0.1%, and it was added to the culture medium. The culture medium was then maintained at 37° C. in a stationary condition for 4 days. After the cultivation, the number of surviving cells was measured by dyeing with trypan blue. As a control, 0.1% ethanol was used. A dose-reaction curve plotted from the ratios of proliferation against the control, and IC50 was determined.

[3] = Mus musculus, 96 h, read-out: IC50

| SMILES | Increase of life span ILS (%) ([1]; 5 mg/kg/day) | Survival ([1]; 5 mg/kg/day) | Increase of life span ILS (%) ([1]; 10 mg/kg/day) | Survival ([1]; 10 mg/kg/day) | IC50 [2, 3] | Increase of life span ILS (%) ([1]; 15 mg/kg/day) | Survival ([1]; 15 mg/kg/day) | Increase of life span ILS (%) ([1]; 2.5 mg/kg/day) | Survival ([1]; 2.5 mg/kg/day) | IC50 [2] |
| --- | --- | --- | --- | --- | --- | --- | --- | --- | --- | --- |
| CCCCCCCC[C@@]1(O)C=CC(=O)/C1=C/CCCCCC(=O)OC [Compound 142, (4R)-5-[(E)-6-methoxycarbonylhexylidene]-4-hydroxy-4-octyl-2-cyclopentenone] | 5.4% | 10.3 ± 0.5 days | 15.3% | 11.3 ± 0.5 days | 0.15 µg/mL (≈ 0.428 µM) | – | – | – | – | – |
| CCCCCCCC[C@@]1(O)C=CC(=O)/C1=C\CCCCCC(=O)OC [Compound 144, (4R)-5-[(Z)-6-methoxycarbonylhexylidene]-4-hydroxy-4-octyl-2-cyclopentenone] | 2.9% | 10.7 ± 0.5 days | 17.3% | 12.2 ± 1.2 days | 0.15 µg/mL (≈ 0.428 µM) | 12.5% | 11.7 ± 0.5 days | – | – | – |
| O=C1C=CC(O)(CCCCOc2ccccc2)C1=C/C=C/C(O)CCCO (stereo not drawn) [Compound 148] | 32.7% | 13.0 ± 1.4 days | 29.6% | 12.7 ± 0.7 days | – | – | – | 15.3% | 11.3 ± 0.5 days | 1.5 µg/mL (≈ 4.03 µM) |
| COC(=O)CCCCCC=C1C(=O)C(Cl)=CC1(O)CCCc1ccc(OC)c(OC)c1 (stereo not drawn) [Compound 152, 2-chloro-4-hydroxy-4-[3-(3,4-dimethoxyphenyl)propyl]-5-(6-methoxycarbonylhexylidene)-2-cyclopentenone] | – | – | 19.4% | 11.7 ± 1.1 days | 0.06 µg/mL (≈ 0.133 µM) | – | – | – | – | – |
| CCCCCCCCC1(O)C=C(Cl)C(=O)C1=CCCCCCC(=O)OC (stereo not drawn) [Compound 154, 2-chloro-4-hydroxy-5-(6-methoxycarbonylhexylidene)-4-octyl-2-cyclopentenone] | – | – | 7.1% | 10.5 ± 0.8 days | 0.03 µg/mL (≈ 0.0779 µM) | – | – | – | – | – |
| COC(=O)CCCCC/C=C1\C(=O)C(Cl)=CC1(O)CCC(C)CCCC(C)C (stereo not drawn) [Compound 156, 2-chloro-4-(3,7-dimethyloctyl)-4-hydroxy-5-[(Z)-6-methoxycarbonylhexylidene]-2-cyclopentenone] | – | – | – | – | 0.035 µg/mL (≈ 0.0847 µM) | – | – | – | – | – |
| COC(=O)CCCCC/C=C1/C(=O)C(Cl)=CC1(O)CCC(C)CCCC(C)C (stereo not drawn) [Compound 158, 2-chloro-4-(3,7-dimethyloctyl)-4-hydroxy-5-[(E)-6-methoxycarbonylhexylidene]-2-cyclopentenone] | – | – | – | – | 0.025 µg/mL (≈ 0.0605 µM) | – | – | – | – | – |
| COC(=O)CCCCCC(O)C1C(=O)C(Cl)=CC1(O)CCCc1ccc(OC)c(OC)c1 (stereo not drawn) [Compound 226, 2-chloro-4-hydroxy-4-[3-(3,4-dimethoxyphenyl)propyl]-5-(1-hydroxy-6-methoxycarbonylhexyl)-2-cyclopentenone] | 10.0% | 11.0 ± 0 days | – | – | 0.2 µg/mL (≈ 0.426 µM) | – | – | – | – | – |
| CC(C)=CCCC(C)=CC(O)C1C(=O)C=CC1(O)CCCCOc1ccccc1 (stereo not drawn) [Compound 228, 4-(4-phenoxybutyl)-4-hydroxy-5-(3,7-dimethyl-1-hydroxy-2,6-octadiene)-2-cyclopentenone] | – | – | – | – | 0.4 µg/mL (≈ 1 µM) | 4.1% | 10.2 ± 0.9 days | – | – | – |
